How the values were obtained:
[1] = tested on: primary human skin cells (skin fibroblast cells or primary keratinocytes); test: in vitro 2D skin model, cell proliferation; type: cell-based; settings: after 13 days; for cell proliferation: 100 nM and 1 μM, relative to control treatment
From the text: Methylene Blue: [7-(dimethylamino) phenthiazin-3-ylldene]-dImethylazinium chloride, or more simply as methylthloninium chloride. Also included are all hydrates, particularly, the hydrate or trihydrate of Methylene Blue as well as all dermatologically acceptable salts thereof, such as the chloride salt. All forms of Methylene Blue are also abbreviated herein as MB and are to be understood as such. about: as used herein means±10%. […] Examples of conventional sunscreen excipients or adjuvants, include, for example, xanthan gums, corn starch, film-forming polymers and/or copolymers, glycerin, emulsifiers, moisturizing agents and cosmetic ingredients. Further examples of conventional sunscreen composition excipients or adjuvants are described in U.S. Pat. Nos. 9,149,664; 8,128,913; 9,050,475 and 6,800,274, all of which are incorporated herein by reference in the entirety. The present invention specifically avoids the inclusion of Oxybenzone and/or Octinoxate in the aforementioned U.S. patents which are used as UVA and/or UVB absorbers, and uses instead, Methylene Blue or any of the hydrates or dermatologically-acceptable salts thereof. Further, it is explicitly contemplated that conventional inorganic compounds, such as zinc oxide and/or titanium oxide, for example, may be used in formulating the sunscreen composition of the present invention. Also, polymers and/or copolymers that are conventionally used as sunscreen stabilizer emollients, such as polyester-8, may also be used in the present sunscreen formulations. Dermatologically-acceptable salts of MB: includes all salts recognized as safe for application to human skin, but generally, the chloride and/or hydrochloride salts are preferred. In vitro 2D skin test: This test is described in by Xiong, et al. in Scientific Reports 7, Article number: 2475 (2017), using primary human skin cells (skin fibroblast cells or primary keratinocytes). Sunscreen agents excluded from the present invention: the conventional sunscreen compounds Oxybenzone and Octinoxate are explicitly excluded from this invention. However, other conventional FDA-approved UVA and UVB absorbers may be used in combination with MB, its hydrates or salts in the present invention. SPF: means a “sun protection factor” defined at 21 USC 352.1 et seq. using the term MED, which in turn means Minimal Erythema Dose, which is defined as the quantity of erythema-effective energy (expressed in Joules per square meter) required to produce the first perceptible redness reaction with clearly defined borders. […]

[2] = tested on: primary human skin cells (skin fibroblast cells or primary keratinocytes); test: in vitro 2D skin model, cellular ROS levels by MitoSOX; type: cell-based; settings: 100 nM and 1 μM, 0.1% DMSO solvent control
From the text: Methylene Blue: [7-(dimethylamino) phenthiazin-3-ylldene]-dImethylazinium chloride, or more simply as methylthloninium chloride. Also included are all hydrates, particularly, the hydrate or trihydrate of Methylene Blue as well as all dermatologically acceptable salts thereof, such as the chloride salt. All forms of Methylene Blue are also abbreviated herein as MB and are to be understood as such. about: as used herein means±10%. […] Examples of conventional sunscreen excipients or adjuvants, include, for example, xanthan gums, corn starch, film-forming polymers and/or copolymers, glycerin, emulsifiers, moisturizing agents and cosmetic ingredients. Further examples of conventional sunscreen composition excipients or adjuvants are described in U.S. Pat. Nos. 9,149,664; 8,128,913; 9,050,475 and 6,800,274, all of which are incorporated herein by reference in the entirety. […] SPF: means a “sun protection factor” defined at 21 USC 352.1 et seq. using the term MED, which in turn means Minimal Erythema Dose, which is defined as the quantity of erythema-effective energy (expressed in Joules per square meter) required to produce the first perceptible redness reaction with clearly defined borders. […]

[3] = scale of 1-10 (with 10 being the worst); cited from earlier work
[4] = spectrophotometric UV absorption of dilute solutions; type: physicochemical; settings: 1 mM, MB versus BP-3
Protocol: In this example, the absorption characteristics based on spectrophotometric analysis of various dilute solutions of each of MB and oxybenzone (BP-3) were measured and then compared. The solution concentrations for each of MB and BP-3 were 100 μM and 1 mM.

human skin fibroblasts [5] = test: recovery of MB-pretreated skin fibroblasts after UVB radiation (cell viability, survival); type: cell-based; settings: 100 nM pre-treatment for two weeks
Protocol: In this example, the protection ability of MB against UVB radiation was measured. […] Here, a preliminary study was conducted in which human skin fibroblasts were pre-treated with MB at 100 nM concentration for two weeks and then exposed to 0, 5, 10 and 20 seconds of UVB radiation at 1100 mW/cm^2. In this preliminary study, both groups, i.e., MB-exposed skin cells and the control group, were exposed to the same amount of UVB radiation.

human skin fibroblasts [6] = test: gamma H2AX levels (DNA double strand breakage) after UVB exposure; type: cell-based; settings: 24 hours after UVB exposure, 100 nM pre-treatment; control group doubled
Protocol: In this example, the protection ability of MB against UVB radiation was measured. […] Here, a preliminary study was conducted in which human skin fibroblasts were pre-treated with MB at 100 nM concentration for two weeks and then exposed to 0, 5, 10 and 20 seconds of UVB radiation at 1100 mW/cm^2.
Specifically, the histone H2AX Is phosphorylated to a gamma form (gamma H2AX) upon DNA double strand breakage and levels of gamma H2AX positively correlate with the presence of DNA breaks, which are commonly generated by UVB radiation.

human keratinocyte cells = test: cell death of keratinocytes after harsh UVB irradiation; type: cell-based; settings: 5 days, versus control human keratinocyte cells
Umbrella xenia = test: soft coral exposure in seawater for one week; type: in vivo; settings: 0.5 and 1.0 μM in seawater
From the text: Samples of Umbrella xenia were placed in individual containers filled with seawater plus any one of MB or Oxybenzone or Octinoxate for one week. All of the containers were otherwise under the exact same temperature, lighting and water flow conditions. Separate containers were used for both “Control” (nothing added) and DMSO, also added in the same two concentrations specified below for MB, Oxybenzone and Octinoxate.

SMILES: COc1ccc(C(=O)c2ccccc2)c(O)c1 [BP-3]
- cell proliferation [1]: no changes in growth
- cellular reactive oxygen species (ROS) levels by MitoSOX [2]: elevated ROS levels
- EWG hazard score [3]: 8

SMILES: CN(C)c1ccc2nc3ccc(=[N+](C)C)cc-3sc2c1 [MB, [7-(dimethylamino)phenthiazin-3-ylldene]-dImethylazinium chloride]
- cell proliferation [1]: increase in cell proliferation
- cell number reading (FIG. 1) ([1]; 100 nM): greatest cell number reading
- cell number reading (FIG. 1) ([1]; 1 μM): somewhat less
- cellular reactive oxygen species (ROS) levels by MitoSOX [2]: dosage-dependent reduction in ROS
- protection against UVB radiation (absorption) [4]: superior protection against UVB radiation
- recovery after UVB radiation (cell viability) (human skin fibroblasts [5]; UVB 0-20 seconds at 1100 mW/cm^2, five days recovery, versus control group): significantly superior recovery
- survival after high dosage-UVB radiation (imaging analysis) (human skin fibroblasts [5]; versus control samples): superior survival
- levels of gamma H2AX (human skin fibroblasts [6]): reduced levels of gamma H2AX
- rescue of cell death after harsh UVB irradiation (FIG. 6) (human keratinocyte cells): partially rescue cell death
- effects on soft corals (Umbrella xenia): No adverse effects

Reference: patent publication US12403079B2, “Ingredient in sunscreen compositions” (MAGIC BLUE, LLC, priority 2019, dated 2025)
